Laboratory results published in patent US11793824B2, “Administration of nicotinamide mononucleotide in the treatment of disease” (Washington University, priority 2013, dated 2023).

Tests used:
Sirt2 = target: T1, Sirt2 (Mus musculus, UniProt Q8VDQ8); assay: Oligodendrocyte formation from dissociated neurospheres with Sirt2 inhibitor; assay type: cell-based; conditions: AGK2 10 μM, 6-7 days of differentiation
T1 construct: endogenous in cells; host or cells: dissociated primary neurospheres (NSPCs) from postnatal mouse hippocampi, differentiated for 6-7 days
T1 sequence (Q8VDQ8 1-389): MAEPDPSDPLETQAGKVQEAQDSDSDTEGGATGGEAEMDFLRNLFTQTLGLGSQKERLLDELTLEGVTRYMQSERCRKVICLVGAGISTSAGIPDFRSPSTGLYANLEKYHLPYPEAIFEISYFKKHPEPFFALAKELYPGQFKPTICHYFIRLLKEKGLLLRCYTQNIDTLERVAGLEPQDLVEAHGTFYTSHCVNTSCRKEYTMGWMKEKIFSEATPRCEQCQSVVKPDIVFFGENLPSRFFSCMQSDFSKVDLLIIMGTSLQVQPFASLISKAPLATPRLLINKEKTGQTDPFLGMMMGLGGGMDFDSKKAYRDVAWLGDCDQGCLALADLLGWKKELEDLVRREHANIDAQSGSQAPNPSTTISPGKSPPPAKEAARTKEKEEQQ
Description: FK866 (Hasmann & Schemainda, 2003) (Sigma F8557), EX527 (Peck et al, 2010) (Cayman Chemical 10009798), and AGK2 (Outeiro et al, 2007) (Sigma A8231) were dissolved in DMSO and used to inhibit Nampt, Sirt1, and Sirt2 respectively.
Three to five days after their first passage, neurospheres were trypsinized, washed with dissociation medium, and plated at 150,000 cells per well in 24-well plates in differentiation medium [growth medium without FGF and EGF and with BDNF (5 ng/mL, Peprotech, 450-02) on glass coverslips coated with poly-D-lysine (50 ug/mL; Sigma) and laminin (20 ug/mL; BD Biosciences)]. 6-well plates were coated with poly-D-lysine (20 ug/mL) and laminin (10 ug/mL). To enrich for oligodendrocytes, PDGFαα (10 ng/ml, Peprotech 100-13A) was added to neurospheres at passage 2 and PDGFαα (2.5 ng/ml) and 3,3-,5-triiodo-L-thyronine (T3, 40 ng/ml, Sigma T4397) were added to differentiation medium. The percentage of oligodendrocyte precursor cells (OPCs) generated was analyzed after 2 d of differentiation, and the percentage of differentiated oligodendrocytes was analyzed after 6-7 d of differentiation.
The inventors acutely treated NSPCs with the selective inhibitor of Sirt2, AGK2, or the Sirt1 inhibitor, EX527. […] The inventors generated Sirt1/Sirt2-double knockout (Sirt1/2 DKO) neurospheres. […]

Sirt1 = target: T2, Sirt1 (Mus musculus, UniProt Q923E4); assay: Oligodendrocyte formation from dissociated neurospheres with Sirt1 inhibitor; assay type: cell-based; conditions: EX527 80 μM, 6-7 days of differentiation
T2 construct: endogenous in cells; host or cells: dissociated primary neurospheres (NSPCs) from postnatal mouse hippocampi, differentiated for 6-7 days
T2 sequence (Q923E4 1-737): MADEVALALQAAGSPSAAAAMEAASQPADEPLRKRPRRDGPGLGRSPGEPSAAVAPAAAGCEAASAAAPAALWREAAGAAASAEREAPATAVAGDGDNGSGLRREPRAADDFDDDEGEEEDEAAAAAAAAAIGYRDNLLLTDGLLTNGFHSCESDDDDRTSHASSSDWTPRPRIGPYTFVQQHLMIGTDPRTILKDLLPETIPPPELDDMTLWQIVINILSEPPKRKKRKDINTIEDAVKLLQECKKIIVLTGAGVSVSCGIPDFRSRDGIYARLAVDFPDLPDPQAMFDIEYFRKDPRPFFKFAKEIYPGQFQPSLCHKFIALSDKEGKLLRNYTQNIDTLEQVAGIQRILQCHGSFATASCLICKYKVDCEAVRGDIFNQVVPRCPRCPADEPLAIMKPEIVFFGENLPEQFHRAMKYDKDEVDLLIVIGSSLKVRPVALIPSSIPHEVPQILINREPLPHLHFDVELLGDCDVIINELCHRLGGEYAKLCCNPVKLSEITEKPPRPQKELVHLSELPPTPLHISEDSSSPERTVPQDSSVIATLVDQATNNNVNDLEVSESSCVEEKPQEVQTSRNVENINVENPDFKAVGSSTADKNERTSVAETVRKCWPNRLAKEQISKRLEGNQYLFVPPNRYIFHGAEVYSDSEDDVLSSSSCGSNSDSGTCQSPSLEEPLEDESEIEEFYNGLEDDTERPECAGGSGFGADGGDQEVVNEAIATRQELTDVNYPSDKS
Description: Data are presented as mean±s.e.m. *P<0.05. **P<0.01. ***P<0.001.

NestinGFP+ cells = assay: Cuprizone model of demyelination and remyelination, fate of NestinGFP+ cells; assay type: in vivo, mouse
Description: Demyelination was induced by feeding 6 to 8-week-old mice a diet containing 0.2% cuprizone (bis-cyclohexanone oxaldihydrazone; Sigma C9012) mixed into a ground standard rodent chow for 4 to 5 weeks (Harlan Laboratories, TD.01453). To allow recovery from cuprizone treatment, food was replaced with standard chow for an additional 1 week.
All tissue sections were and cells incubated in blocking/permeabilization solution containing 10% normal goat serum, 1% BSA, and 0.3% Triton-X in PBS for 45 to 60 min prior to 24 or 48 h of incubation with primary antibodies in 5% normal goat serum and 0.1% Triton-X in PBS at 4° C. at the concentrations listed below. […], Alexa488, or Cy3 conjugated-secondary antibodies diluted in 2% normal goat serum, 1% BSA, and 0.1% Triton-X in PBS were added for 2 h at room temperature. Nuclei were stained with 4,6-diamidino-2-phenylindole (Sigma) for 10 min at room temperature.
For tissue sections, high-magnification (20×, 0.8DICII or 40× oil 1.3DICII) microscopic imaging was performed using a Zeiss Axioimage.Z1. Images were taken in z-stacks of 1 μm steps through the range of tissue section immunoreactivity. For the dorsolateral corner of the SVZ, images were taken from bregma 1.10 to −0.10 mm. For the corpus callosum, images were taken from bregma −1.06 to −2.54 mm. For the dentate gyrus, images were taken from bregma −1.34 to −3.64 mm. Quantification was performed blinded to genotype on 3-8 tissue sections per animal. Cell densities were estimated by the number of immunoreactive cells divided by the area of the structure, measured with ImageJ. Verification of colocalization was achieved by importing stacks of Z images into ImageJ and performing 3D rendering. For cells, 10 or 20× microscopic imaging was performed using a Zeiss Axioimage.Z1. Quantification was performed blinded to genotype on 2 to 3 fields of view per sample and treatment, from 3 to 9 independent samples.
The inventors employed the cuprizone model of demyelination and remyelination. Specifically, the inventors fed 6- to 9-week-old iNSPC-Nampt-KO and littermate control mice (iNSPC-GFP) a diet containing 0.2% cuprizone for 4-5 weeks, inducing deletion of Nampt in the adult Nestin+ population the week before starting the cuprizone diet (FIG. 20B) (Skripuletz et al, 2011). To ensure that analysis of progeny of adult Nestin+ cells, all mice in our cohort expressed Cre recombinase under the inducible Nestin promoter (Nestin-CreERT2) (Lagace et al, 2007) and the aforementioned Cre recombinase responsive GFP reporter transgene. The analysis focus was on lineage tracer marked (NestinGFP+) cells.

[1] = cited from earlier work
[2] = CC of control mice, cuprizone feeding
[3] = iNSPC-GFP CC, cuprizone feeding

N#C/C(=C\c1ccc(-c2cc(Cl)ccc2Cl)o1)C(=O)Nc1cccc2ncccc12 [AGK2]
oligodendrocyte formation (O4+) (Sirt2): acutely suppressed oligodendrocyte formation

NC(=O)C1CCCc2c1[nH]c1ccc(Cl)cc21 (stereo not drawn) [EX527]
oligodendrocyte formation (O4+) (Sirt1): acutely suppressed oligodendrocyte formation

O=C(NN=C1CCCCC1)C(=O)NN=C1CCCCC1 [cuprizone, bis-cyclohexanone oxaldihydrazone]
total number of NestinGFP+ cells in the iNSPC-GFP DG (NestinGFP+ cells; 0.2% cuprizone diet 4-5 weeks): did not alter | NestinGFP+Apc+ double positive cells (NestinGFP+ cells; [2]): 4% | NestinGFP+Sox10+ double positive cells (NestinGFP+ cells; [2]): 16% | percentage of NestinGFP+ cells co-localized with Gfap+ (NestinGFP+ cells; SGZ, cuprizone fed): 41% | percentage of NestinGFP+ cells co-localized with Nestin+ (NestinGFP+ cells; SGZ, cuprizone fed): 35% | NestinGFP+Gfap+ double positive cells (NestinGFP+ cells; [3]): 24% | percentage of NestinGFP+Nestin+ cells (NestinGFP+ cells; [3]): 41%

O=C(O)c1cccnc1 [nicotinic acid]
skeletal muscle insulin resistance ([1]; chronic administration): can cause skeletal muscle insulin resistance | blood FFA levels ([1]; chronic treatment): tends to increase blood FFA levels | total cholesterol and triglyceride levels ([1]; chronic treatment): lowers total cholesterol and triglyceride levels
